Laboratory results reported in patent US20200113852A1, “METHODS OF PATIENT SELECTION AND TREATING TRXR- OR PRDX-OVEREXPRESSED CANCERS” (TRIACT THERAPEUTICS, INC., priority 2017, published 2020).
Read-outs that look alike come from different tables or passages of the source.

Tests used:
recombinant human GAPDH = target: T1, recombinant human GAPDH (Homo sapiens, UniProt P04406); assay: In vitro modification of GAPDH by Iniparib and I-NOBA; assay type: binding
T1 construct: purchased Acris
Description: For biochemical analysis, recombinant human GAPDH (Acris) was first reduced by a 15,000-fold excess of DTT at 56° C. for 30 min, the reducing agent being removed thereafter by chloroform/methanol precipitation. […] Afterwards the samples were submitted or not to another reducing step with 25 mM DTT (56° C., 30 min), and after removal of DTT by chloroform/methanol precipitation, biotinylation of free cysteine sulfhydryl groups of GAPDH was performed with HPDP-biotin (N-[6-(Biotinamido)hexyl]-3′-(2′-pyridyldithio)propionamide) at […] for 2 h at 20° C.
Sample mixtures were then reduced or not with 25 mM DTT (56° C., 30 min). Intact molecular weights were measured by mass spectrometry. Liquid chromatography-electrospray ionization mass spectrometry (LC/MS) was carried out using LTQ-Orbitrap Elite mass spectrometer (Thermo Fisher Scientific) coupled to a Famos Autosampler and an Ultimate Pump (LC-Packing, Dionex). Reverse phase chromatography was performed with a binary buffer system consisting of 0.2% formic acid (buffer A) and 80% acetonitrile in 0.2% formic acid (buffer B). After dilution to 1 pmole/μl in 0.2% formic acid, 1 μl of samples were loaded on a Poros 1 R/H column (75 μm×15 cm, Dionex). […] Mass spectra (m/z 500-2,000) were acquired in the positive ITMS mode with 5 μscans accumulation, a target value of 30,000 and a maximum injection time of 100 ms. The acquired raw files were converted in MassLynx format (Waters) using an home-made program and then were deconvoluted using MaxEnt software (Waters).

TrxR in HCT116 cells = target: T2, TrxR in HCT116 cells (Homo sapiens, UniProt Q16881); assay: Endogenous TrxR activity in cell lysates (DTNB reduction assay); assay type: cell-based
T2 sequence (Q16881 1-649): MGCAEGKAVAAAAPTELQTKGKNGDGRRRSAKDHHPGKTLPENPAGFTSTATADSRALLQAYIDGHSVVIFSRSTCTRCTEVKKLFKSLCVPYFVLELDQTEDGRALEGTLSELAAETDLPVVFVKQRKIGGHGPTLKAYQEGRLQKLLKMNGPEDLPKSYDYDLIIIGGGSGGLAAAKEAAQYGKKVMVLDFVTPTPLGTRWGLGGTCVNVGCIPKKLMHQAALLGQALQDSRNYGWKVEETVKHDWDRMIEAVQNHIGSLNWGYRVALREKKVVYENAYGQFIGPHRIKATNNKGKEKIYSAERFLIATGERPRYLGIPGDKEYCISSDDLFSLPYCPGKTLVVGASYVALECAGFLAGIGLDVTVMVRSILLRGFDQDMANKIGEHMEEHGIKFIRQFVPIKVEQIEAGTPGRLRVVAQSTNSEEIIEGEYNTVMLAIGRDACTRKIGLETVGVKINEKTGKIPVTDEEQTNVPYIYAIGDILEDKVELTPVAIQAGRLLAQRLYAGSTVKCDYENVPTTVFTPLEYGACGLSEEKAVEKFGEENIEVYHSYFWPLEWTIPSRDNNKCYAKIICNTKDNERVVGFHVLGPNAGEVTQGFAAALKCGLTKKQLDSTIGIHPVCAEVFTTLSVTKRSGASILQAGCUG

Prdx1 = target: T3, Prdx1 (Homo sapiens, UniProt Q06830); assay: Monomeric avidin pull-down and Prdx1 immunoprecipitation, identification of Prdx1 modification; assay type: cell-based; conditions: GSH-depleted HCT116, 100 μM, 4 h
T3 construct: endogenous in cells; host or cells: HCT116 (GSH-depleted with BSO)
T3 sequence (Q06830 2-199 limits assumed): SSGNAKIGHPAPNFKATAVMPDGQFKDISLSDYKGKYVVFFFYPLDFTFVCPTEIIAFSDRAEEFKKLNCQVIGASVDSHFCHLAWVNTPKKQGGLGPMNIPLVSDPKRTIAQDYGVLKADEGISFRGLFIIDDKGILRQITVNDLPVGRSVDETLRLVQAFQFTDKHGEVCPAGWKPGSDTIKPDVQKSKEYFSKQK
Description: After separation by SDS-PAGE under reducing conditions and PageBlue® protein staining (Thermo scientific), bands of interest were excised, reduced with DTT, alkylated with iodoacetamide and in-gel digested with trypsin (Promega). Peptides were extracted with acetonitrile 50% in 0.2% formic acid and analyzed by Nano LC-MS/MS after partial evaporation in a speed-vac concentrator. LC-MS/MS experiments were performed on an NanoAcquity UPLC (Waters) coupled to a hybrid LTQ Orbitrap Velos mass spectrometer (Thermo Fisher Scientific) equipped with a nanoelectrospray source. Tryptic digests were loaded onto a nanoAcquity UPLC Trap column (Symmetry C18, 5 μm, 180 μm×20 mm, Waters) and washed with 0.2% formic acid at 20 μL/min for 5 min. Peptides were then eluted on a C18 reverse-phase nanoAcquity column (BEH130 C18, 1.7 μm, 75 μm×250 mm, Waters) with a linear gradient of 7-30% solvent B (H2O/CH3CN/HCOOH, 10:90:0.2, by vol.) for 85 min, 30-90% solvent B for 10 min, and 90% solvent B for 5 min, at a flow rate of 250 nL/min.
The mass spectrometer was operated in the data-dependent mode to automatically switch between MS and MS/MS acquisition. […] The exact parent mass is the ^12C isotope ion mass of the most intense isotopic pattern detected on the high resolution Orbitrap MS parallel scan and included in the MS/MS selection window. […]

[1] = HCT-116, read-out: inhibition of TrxR reductase activity, 100 μM, 4 h, BSO-pretreated HCT116
[2] = HCT-116, read-out: inhibition of TrxR reductase activity, 100 μM, first 2 h of incubation, BSO-pretreated HCT116

T1 sequence (P04406 whole entry): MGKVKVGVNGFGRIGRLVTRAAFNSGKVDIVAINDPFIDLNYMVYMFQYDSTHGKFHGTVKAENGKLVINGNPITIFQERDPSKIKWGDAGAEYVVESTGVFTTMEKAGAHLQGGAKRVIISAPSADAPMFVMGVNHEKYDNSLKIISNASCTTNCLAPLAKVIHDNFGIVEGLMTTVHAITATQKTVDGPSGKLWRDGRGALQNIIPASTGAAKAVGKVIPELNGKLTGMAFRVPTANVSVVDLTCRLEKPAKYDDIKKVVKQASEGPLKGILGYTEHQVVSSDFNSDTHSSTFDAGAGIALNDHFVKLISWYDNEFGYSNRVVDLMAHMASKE

| SMILES | covalent modification of GAPDH (MS analysis) (recombinant human GAPDH; purified GAPDH incubated with compound) | blocking of free thiol groups in GAPDH (recombinant human GAPDH; purified GAPDH, biotin-HPDP labeling, streptavidin-HRP blot) | inhibition at 100 µM (TrxR in HCT116 cells; [1]) | inhibition at 100 µM (TrxR in HCT116 cells; [2]) | Prdx1 modification after in-cell bio activation (Prdx1) | modification of free thiol groups in purified GAPDH (recombinant human GAPDH) |
| --- | --- | --- | --- | --- | --- | --- |
| NC(=O)c1ccc(I)c([N+](=O)[O-])c1 [Iniparib, 4-iodo-3-nitrobenzamide] | not able to covalently modify the protein | ineffective | ~100% | > 90% | modifies Cys173 |  |
| O=C(CCCC[C@@H]1SC[C@@H]2NC(=O)N[C@@H]21)NCCNC(=O)c1ccc(I)c([N+](=O)[O-])c1 [Iniparib-biotin, 4-iodo-3-nitro-N-(2-(5-((3 aS,4S,6aR)-2-oxohexahydro-1H-thieno[3,4-d]imidazol-4-yl)pentanamido)ethyl)benzamide] |  |  | ~100% | > 90% | modifies Cys173 | did not modify free thiol groups |
